Common to all, as to test: microbe, parasite or virus in culture
What all share (type): functional

Assay [1] relates to Staphylococcus aureus. As to conditions: ATCC 29213, 24 h.
Assay [2] has as its system Staphylococcus aureus. As to conditions: ATCC 25923, 24 h.
In another assay the test system is Klebsiella pneumoniae. As to conditions: ATCC 27736, 24 h.

Converted amounts (≈) assume the structure as drawn.

From ChEMBL document CHEMBL1759957, “Synthesis and antibacterial evaluation of novel 8-fluoro Norfloxacin derivatives as potential probes for methicillin and vancomycin-resistant Staphylococcus aureus” (2011) come the findings set out here.

On to `O=C(O)c1cn(Cc2ccc(C(F)(F)F)cc2)c2c(F)c(N3CCN(c4nc(N5CCOCC5)nc(N5CCOCC5)n4)CC3)c(F)cc2c1=O`, for which the results for the MIC with Staphylococcus aureus [1], against Staphylococcus aureus [2] and against Klebsiella pneumoniae were 1.56 µg/mL (≈ 2.18 µM), 3.12 µg/mL (≈ 4.35 µM) and 1.56 µg/mL (≈ 2.18 µM), respectively.

On to `CC(C)(C)Nc1nc(NC(C)(C)C)nc(N2CCN(c3c(F)cc4c(=O)c(C(=O)O)cn(Cc5ccc(C(F)(F)F)cc5)c4c3F)CC2)n1`, for which the MIC in the assay on Staphylococcus aureus [1] is 6.25 µg/mL (≈ 9.08 µM); in the assay on Staphylococcus aureus [2], 3.12 µg/mL (≈ 4.53 µM); in the assay with Klebsiella pneumoniae, 1.56 µg/mL (≈ 2.27 µM).

For `CCCCNc1nc(C)cc(N2CCN(c3c(F)cc4c(=O)c(C(=O)O)cn(CC)c4c3F)CC2)n1`, the MIC is 0.09 µg/mL (≈ 0.18 µM) in the assay on Staphylococcus aureus [1], 0.78 µg/mL (≈ 1.56 µM) against Staphylococcus aureus [2] and 0.78 µg/mL (≈ 1.56 µM) against Klebsiella pneumoniae.

On to `CCn1cc(C(=O)O)c(=O)c2cc(F)c(N3CCN(c4cc(C)nc(NC(C)(C)C)n4)CC3)c(F)c21`, for which the MIC was found to be 0.78 µg/mL (≈ 1.56 µM) in the assay on Staphylococcus aureus [1], 1.56 µg/mL (≈ 3.12 µM) against Staphylococcus aureus [2] and 0.78 µg/mL (≈ 1.56 µM) with Klebsiella pneumoniae.

Regarding `Cc1cc(N2CCN(c3c(F)cc4c(=O)c(C(=O)O)cn(Cc5ccc(C(F)(F)F)cc5)c4c3F)CC2)nc(N2CCOCC2)n1`, the MIC in the assay with Staphylococcus aureus [1] turned out to be 1.56 µg/mL (≈ 2.42 µM); in the assay on Staphylococcus aureus [2], 1.56 µg/mL (≈ 2.42 µM); with Klebsiella pneumoniae, 0.78 µg/mL (≈ 1.21 µM).

On to `Cc1cc(N2CCN(c3cc4c(cc3F)c(=O)c(C(=O)O)cn4Cc3ccc(C(F)(F)F)cc3)CC2)nc(N2CCN(C)CC2)n1`, for which the MIC amounted to 12.5 µg/mL (≈ 19.5 µM) in the assay on Staphylococcus aureus [1], 6.25 µg/mL (≈ 9.77 µM) against Staphylococcus aureus [2] and 6.25 µg/mL (≈ 9.77 µM) in the assay with Klebsiella pneumoniae.

On to `Cc1cc(N2CCN(c3c(F)cc4c(=O)c(C(=O)O)cn(Cc5ccc(C(F)(F)F)cc5)c4c3F)CC2)nc(NCCN2CCOCC2)n1`, for which the MIC with Staphylococcus aureus [1] was determined as 1.56 µg/mL (≈ 2.27 µM); in the assay with Staphylococcus aureus [2] it was 0.78 µg/mL (≈ 1.13 µM); in the assay with Klebsiella pneumoniae, 1.56 µg/mL (≈ 2.27 µM).

In the case of `CCCCNc1nc(C)cc(N2CCN(c3c(F)cc4c(=O)c(C(=O)O)cn(Cc5ccc(C(F)(F)F)cc5)c4c3F)CC2)n1`, the results for the MIC in the assay with Staphylococcus aureus [1], in the assay on Staphylococcus aureus [2] and in the assay on Klebsiella pneumoniae were 1.56 µg/mL (≈ 2.47 µM), 6.25 µg/mL (≈ 9.91 µM) and 6.25 µg/mL (≈ 9.91 µM), respectively.

`CCCNc1nc(C)cc(N2CCN(c3c(F)cc4c(=O)c(C(=O)O)cn(Cc5ccc(C(F)(F)F)cc5)c4c3F)CC2)n1`: the MIC came out at 3.12 µg/mL (≈ 5.06 µM) against Staphylococcus aureus [1], 1.56 µg/mL (≈ 2.53 µM) with Staphylococcus aureus [2] and 1.56 µg/mL (≈ 2.53 µM) against Klebsiella pneumoniae.

Consider `O=C(O)c1cn(C2CC2)c2cc(N3CCNCC3)c(F)cc2c1=O` [CIPROFLOXACIN], for which the values for the MIC in the assay with Staphylococcus aureus [1], in the assay with Staphylococcus aureus [2] and with Klebsiella pneumoniae were 0.38 µg/mL (≈ 1.15 µM), 0.09 µg/mL (≈ 0.272 µM) and 0.19 µg/mL (≈ 0.573 µM), respectively.

Take `CCn1cc(C(=O)O)c(=O)c2cc(F)c(N3CCNCC3)cc21` [NORFLOXACIN]: the MIC in the assay with Staphylococcus aureus [1] was determined as 1.56 µg/mL (≈ 4.89 µM); against Staphylococcus aureus [2], 0.78 µg/mL (≈ 2.44 µM); in the assay with Klebsiella pneumoniae, 0.39 µg/mL (≈ 1.22 µM).
